Where two headings read alike, the source gives them in different places.
How the values were obtained:
[1] = system: total β-catenin in SW480 colorectal cells; experiment: cells; format: cell-based; details: Homo sapiens
Procedure: Total β-Catenin MSD 96-Well Plate Assay for SW480 Cells
SW480 colorectal cells were seeded at a density of 10,000/well in CellBIND 96-well plates (Corning catalog no. 3300) in 60 μL of normal growth medium (MEM alpha supplemented with 10% heat inactivated FBS, GlutaMAX, pyruvate, and 10 mM HEPES).
A 10-point, 3-fold dilution series for each TNKS inhibitor was constructed in a 96-well “stock” plate. […] The plates were incubated at 37° C. for 40 to 48 hours. The media was removed from the CellBIND plate via plate inversion and gentle shaking and the inverted plate was touched to a paper towel and immediately placed on ice. […] Plates containing cell lysates were sealed and shaken for one hour at 4° C. and then quickly frozen in a −80° C. for approximately 15 to 30 minutes followed by gradually thawing at 4° C. Finally, lysate containing plates were centrifuged @1000×g (2073 rpm) for 10 minutes at 4° C.
The sealed MSD plate was incubated overnight in a cold room with gentle shaking. The MSD plate was then blocked with 150 μL of Blocker “A” per well and incubated overnight at 4° C. with vigorous shaking. The blocked MSD plate was washed 4 times with 150 μL/well TBS-T wash buffer (150 mM NaCl, 50 mM Tris, pH 7.5, 0.02% Tween-20). Cell lysates (75 μL) were transferred to prepared MSD plates and incubated at 4° C. ON with gentle shaking. […] The detection antibody was incubated for 1 hour at room temperature with vigorous shaking after which plates were washed 3 times with 150 μL/well TBS-T wash buffer. Plates were processed for analysis by the addition of 150 μL/well MSD Read 4× Buffer T with surfactant (catalog no. R92TC-2; diluted 1:3 in deionized water) and were read on the SECTOR Imager 6000.

Axin2 in SW480 cells = experiment: cells; format: cell-based; details: Homo sapiens, read-out: Axin2 384 IF EC50 IP
Procedure: Using a VPrep, 10 μL of compound/controls was transferred from the compound plate to 60 μL in the cell plate (final 0.5% DMSO, 70 μL). The mixture was incubated for 24 hours at 37° C. at 5% CO2.
The extra media was tapped out. 50 μL of 4% paraformaldehyde (Fisher, AA433689M), 0.1% Triton (Sigma, X100-100 ML) in PBS were added, and the mixture was incubated for 15 minutes at room temperature. […] The extra media was tapped out and to this was added 50 μL of buffer containing Axin2 Antibody (Sigma, SAB1100677-200 µL) at 1:10000 in PBS, 0.1% Tween-20, 1% Normal Goat Serum. The mixture was incubated for 2 hours at room temperature or overnight at 4° C. The cells were then washed twice with PBS, 0.1% Tween-20, and 1% Normal Goat Serum. […] The mixture was then incubated for 30 minutes at room temperature. The cells were then washed twice with PBS, 0.1% Tween-20, and 1% Normal Goat Serum. 50-100 μL PBS was added, and the mixture was covered with a plate seal (Fisher, NC9425162). An ArrayScan (a variation of the compartmental analysis protocol was optimized) was used to scan the plates, and data was analyzed using MEAN_RingSpotAvgIntenCh2). The Axin2 accumulation POC was calculated, and the EC50 was determined using Genedata Screener software to report Axin2 activity.

[2] = molecular target: 6×HIS-tankyrase 1 (1091-1325) (Homo sapiens (Human), UniProt O95271); experiment: biochemical; format: biochemical; details: 400 nM NAD, 60 minutes at room temperature, read-out: TNKS1 IP IC50
[3] = SW480 cells, 40 to 48 hours, top concentration 10 μM, read-out: SW480-Total β-Catenin IC50 IP
[4] = SW480, 24 h, SW480 cells, 24 hours
[5] = SW480, read-out: SW480-Total β-Catenin IC50 IP

6×HIS-tankyrase 1 (1091-1325), sequence (O95271 1091-1325): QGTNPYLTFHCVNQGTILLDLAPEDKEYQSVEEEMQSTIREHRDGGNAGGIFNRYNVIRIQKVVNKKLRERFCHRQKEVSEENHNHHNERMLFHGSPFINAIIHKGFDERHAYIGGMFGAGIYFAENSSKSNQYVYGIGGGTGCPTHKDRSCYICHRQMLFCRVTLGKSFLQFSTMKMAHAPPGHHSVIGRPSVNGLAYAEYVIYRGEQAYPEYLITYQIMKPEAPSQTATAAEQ

Structure (SMILES) | IC50 [1, 3] | EC50 (Axin2 in SW480 cells; [4]) | IC50 ([2]; […] enzyme) | further results
CC1(C)OC(=O)N([C@H]2CC[C@H](n3c(=O)[nH]c4cc(Cl)ccc43)CC2)[C@H]1c1ccccc1 [Example 29, (S)-3-((1r,4S)-4-(5-chloro-2-oxo-2,3-dihydro-1H-benzo[d]imidazol-1-yl)cyclohexyl)-5,5-dimethyl-4-phenyloxazolidin-2-one] | 536 nM | 2560 nM | – | –
CC1(C)OC(=O)N([C@H]2CC[C@H](c3cnc(N)c(-c4ncccn4)c3)CC2)[C@@H]1c1ccccc1 [Example 75, (R)-3-((1r,4R)-4-(6-amino-5-(pyrimidin-2-yl)pyridin-3-yl)cyclohexyl)-5,5-dimethyl-4-phenyloxazolidin-2-one] | – | – | – | IC50 [1, 5]: 1580 nM; EC50 (Axin2 in SW480 cells; SW480, 24 h): 2680 nM
CC1(C)OC(=O)N(c2ccc(C(=O)Nc3cccc4cccnc34)cc2)[C@@H]1c1cccnc1 [Example 10, (R)-4-(5,5-dimethyl-2-oxo-4-(pyridin-3-yl)oxazolidin-3-yl)-N-(quinolin-8-yl)benzamide] | – | > 25000 nM | 4450 nM | –
CC1(C)OC(=O)N([C@H]2CC[C@@H](c3cnc(N)c(-c4ncccn4)c3)CC2)[C@H]1c1ccccc1 (racemic) [Example 72, 3-((1s,4s)-4-(6-amino-5-(pyrimidin-2-yl)pyridin-3-yl)cyclohexyl)-5,5-dimethyl-4-phenyloxazolidin-2-one] | – | – | – | IC50 [1, 5]: 6550 nM; EC50 (Axin2 in SW480 cells; SW480, 24 h): 5810 nM
CC1(C)OC(=O)N([C@H]2CC[C@H](c3cnc(N)c(-c4ncccn4)c3)CC2)[C@H]1c1ccccc1 [Example 74, (S)-3-((1r,4S)-4-(6-amino-5-(pyrimidin-2-yl)pyridin-3-yl)cyclohexyl)-5,5-dimethyl-4-phenyloxazolidin-2-one] | – | – | – | IC50 [1, 5]: 90.8 nM; EC50 (Axin2 in SW480 cells; SW480, 24 h): 51.9 nM
CC1(C)OC(=O)N([C@H]2CC[C@H](n3c(=O)[nH]c4cc(Br)cnc43)CC2)[C@H]1c1ccccc1 [Example 56, (S)-3-((1r,4S)-4-(6-bromo-2-oxo-1H-imidazo[4,5-b]pyridin-3(2H)-yl)cyclohexyl)-5,5-dimethyl-4-phenyloxazolidin-2-one] | 651 nM | – | – | EC50 (Axin2 in SW480 cells; SW480 cells, 24 hours): 676 nM
CC1(C)OC(=O)N([C@H]2CC[C@H](n3c(=O)[nH]c4cccnc43)CC2)C1c1ccccc1 (stereo partly shown) [Example 36, (R+S) 5,5-dimethyl-3-((1r,4r)-4-(2-oxo-1H-imidazo[4,5-b]pyridin-3(2H)-yl)cyclohexyl)-4-phenyloxazolidin-2-one] | 1240 nM | 4400 nM | – | –
CC1(C)OC(=O)N(c2ccc(C(=O)Nc3cccc4cccnc34)cc2)[C@@H]1c1ccncc1 [Example 125, (R)-4-(5,5-dimethyl-2-oxo-4-(pyridin-4-yl)oxazolidin-3-yl)-N-(quinolin-8-yl)benzamide] | – | > 25000 nM | 7910 nM | –
COc1ccc([C@H]2N(c3ccc(C(=O)Nc4cccc5cccnc45)cc3)C(=O)OC2(C)C)cc1 [Example 112, (R)-4-(4-(4-methoxyphenyl)-5,5-dimethyl-2-oxooxazolidin-3-yl)-N-(quinolin-8-yl)benzamide] | – | > 25000 nM | 2750 nM | –
CC1(C)OC(=O)N(c2ccc(C(=O)Nc3cccc4cccnc34)cc2)C1c1ccncc1 (racemic) [Example 124, (+/−)-(R/S)-4-(5,5-dimethyl-2-oxo-4-(pyridin-4-yl)oxazolidin-3-yl)-N-(quinolin-8-yl)benzamide] | 1500 nM | – | – | IC50 ([2]; 0.25 nM enzyme): 767 nM
CC1(C)OC(=O)N(c2ccc(C(=O)Nc3cccc4cccnc34)cc2)C1c1ccccn1 (racemic) [Example 121, (+/−)-(R/S)-4-(5,5-dimethyl-2-oxo-4-(pyridin-2-yl)oxazolidin-3-yl)-N-(quinolin-8-yl)benzamide] | 5640 nM | – | – | IC50 ([2]; 0.25 nM enzyme): 310 nM
CC1(C)OC(=O)N(c2ccc(C(=O)Nc3cccc4cccnc34)cc2)C1c1cccc(F)c1 (racemic) [Example 108, (+/−)-(R/S)-4-(4-(3-fluorophenyl)-5,5-dimethyl-2-oxooxazolidin-3-yl)-N-(quinolin-8-yl)benzamide] | > 10000 nM | – | – | IC50 ([2]; 0.25 nM enzyme): 551 nM
Cc1cc(N2C(=O)OC(C)(C)[C@@H]2c2ccccc2)ccc1C(=O)Nc1ccnc2cccnc12 [Example 128, (S)-4-(5,5-dimethyl-2-oxo-4-phenyloxazolidin-3-yl)-2-methyl-N-(1,5-naphthyridin-4-yl)benzamide] | 4350 nM | – | 693 nM | –
CC1(C)OC(=O)N(c2ccn3c(Nc4ccnc5cccnc45)nnc3c2)[C@H]1c1ccccc1 [Example 71, (S)-3-(3-((1,5-naphthyridin-4-yl)amino)-[1,2,4]triazolo[4,3-a]pyridin-7-yl)-5,5-dimethyl-4-phenyloxazolidin-2-one] | – | > 25000 nM | 503 nM | –
CC1(C)OC(=O)N(c2ccc(-c3cnc(N)c(-c4nccc(C#N)n4)c3)cc2)[C@H]1c1ccccc1 [Example 102, (S)-2-(2-amino-5-(4-(5,5-dimethyl-2-oxo-4-phenyloxazolidin-3-yl)phenyl)pyridin-3-yl)pyrimidine-4-carbonitrile] | > 10000 nM | – | 920 nM | –
CC1(C)OC(=O)N([C@H]2CC[C@H](c3nnc(-c4ccccc4)o3)CC2)[C@H]1c1ccccc1 [Example 85, (S)-5,5-dimethyl-4-phenyl-3-((1r,4S)-4-(5-phenyl-1,3,4-oxadiazol-2-yl)cyclohexyl)oxazolidin-2-one] | 2410 nM | – | 45.2 nM | –
C[C@]1(c2ccccc2)CN([C@H]2CC[C@H](n3c(=O)[nH]c4cc(C#N)ccc43)CC2)C(=O)O1 (single isomer, unassigned) [Example 94] | 3010 nM | – | 270 nM | –
CC1(C)OC(=O)N(c2ccc(-n3c(=O)[nH]c4ccccc43)cc2)[C@H]1c1ccccc1 [Example 19, (S)-5,5-dimethyl-3-(4-(2-oxo-2,3-dihydro-1H-benzo[d]imidazol-1-yl)phenyl)-4-phenyloxazolidin-2-one] | 8630 nM | – | 863 nM | –
CC1(C)OC(=O)N(c2ccc(-c3cc(-c4ccccn4)cnc3F)cc2)[C@H]1c1ccccc1 [Example 114, (S)-3-(4-(6′-fluoro-[2,3′-bipyridin]-5′-yl)phenyl)-5,5-dimethyl-4-phenyloxazolidin-2-one] | 1780 nM | – | 447 nM | –
O=C(Nc1cccc2cccnc12)c1ccc(N2C(=O)OC3(CCCCC3)C2c2ccccc2)cc1 (stereo not shown) [Example 46, (R+S) 4-(2-oxo-4-phenyl-1-oxa-3-azaspiro[4.5]decan-3-yl)-N-(quinolin-8-yl)benzamide] | – | – | 5170 nM | EC50 (Axin2 in SW480 cells; SW480, 24 h): > 25000 nM
CC1(C)OC(=O)N(c2ccc(C(=O)Nc3cccc4cccnc34)cc2)[C@@H]1c1ccccn1 [Example 122, (R)-4-(5,5-dimethyl-2-oxo-4-(pyridin-2-yl)oxazolidin-3-yl)-N-(quinolin-8-yl)benzamide] | 8560 nM | – | 1530 nM | –
C[C@@]1(c2ccccc2)CN([C@H]2CC[C@@H](n3c(=O)[nH]c4cc(C#N)ccc43)CC2)C(=O)O1 (stereo in doubt) [Example 93, 1-((1R,4r)-4-((R)-5-methyl-2-oxo-5-phenyloxazolidin-3-yl)cyclohexyl)-2-oxo-2,3-dihydro-1H-benzo[d]imidazole-5-carbonitrile] | 125 nM | – | 3 nM | –
CC1(C)OC(=O)N(c2ccc(C(=O)Nc3cccc4cccnc34)cc2)[C@@H]1c1cccc(F)c1 [Example 109, (R)-4-(4-(3-fluorophenyl)-5,5-dimethyl-2-oxooxazolidin-3-yl)-N-(quinolin-8-yl)benzamide] | – | > 25000 nM | 5530 nM | –

Reference: patent publication US9340549B2, “Oxazolidinone compounds and derivatives thereof” (priority 2012, dated 2016)
